We go through 1 compound from US20060210504A1, “Compositions and methods for inhibiting eccrine perspiration in humans” (priority 2001, published 2006).

Series [1] has as its system sweat production in the axilla (eccrine sweat glands). Nature of the series: Antiperspirant efficacy evaluation, standard hot room protocol (FDA OTC Antiperspirant Tentative Final Monograph). Type of series: in vivo, human (healthy female volunteers). The settings on record: for mean reduction in sweat production: axilla, once daily for five days, about one hour after fifth treatment. As to the method:
(§1) The antiperspirant efficacy and safety of glycopyrrolate, a quaternary ammonium salt, was tested pursuant to protocol prescribed by the Food and Drug Administration, 21CFR Part 10.90 The OTC Antiperspirant Tentative Final Monograph. So as to separate vehicle from drug effects, glycopyrrolate was presented as a simple solution in varying concentrations of 0.3%, 1% and 3% weight per volume. In each treatment group as listed below, the glycopyrrolate solution and a placebo of distilled water were applied to the axilla of healthy female volunteers. In particular, the placebo was applied to one armpit while the test solution was applied to the other armpit of a given volunteer. The designation of armpits (namely, right or left) for the application of placebo vs. solution was randomized according to the FDA protocol. In the placebo Group B, distilled water was applied to both axilla of each volunteer. Treatments were applied once daily for five consecutive days.
The groups comprised the following: • Group A—0.3% glycopyrrolate versus distilled water; • Group B—Placebo (distilled water applied to both axilla); • Group C—1% glycopyrrolate versus distilled water; • Group D—3% glycopyrrolate versus distilled water;
(§2) The clinical study was conducted among 37 healthy female volunteers. The testing further conformed to ICH guidelines and the requirements of the 1964 Declaration of Helsinki and its subsequent amendments. The study was a pilot, single-center, randomized, controlled, double-blind assessment of the safety, tolerability and antiperspirant efficacy of glycopyrrolate when applied to the axilla of healthy female volunteers.
The study was conducted in two cohorts of volunteers. The first cohort comprised fourteen (14) subjects, with […] subjects assigned to placebo Group B and ten (10) subjects assigned to 0.3% Group A.
Nine (9) days following the completion of the first cohort, a second cohort of twenty-three (23) subjects were tested, with three (3) subjects assigned to placebo Group B, ten (10) subjects assigned to 1% Group C, and ten (10) subjects assigned to 3% Group D.
(§3) The antiperspirant efficacy evaluation was performed approximately one hour after the fifth treatment using a standard hot room protocol. Safety and tolerance were measured by assessment of blood chemistry and hematology, electrocardiograms, daily monitoring of heart rate, blood pressure and body temperature, assessment of visual effects and dermal irritancy, and subjective assessment of tolerance.

The subject of series [2] is healthy female volunteers. As to the kind of experiment: Safety and tolerance assessment on topical application to the axilla. Type of series: in vivo, human. As to the method: as §1, §2, §3
Where [3] appears, read: 1% w/v simple solution (Group C) vs distilled water.
[4] abbreviates: 3% w/v simple solution (Group D) vs distilled water.
The mark [5] stands for this setting: 0.3%, 1% and 3% w/v topical to axilla, once daily for five days.

On to `C[N+]1(C)CCC(OC(=O)C(O)(c2ccccc2)C2CCCC2)C1` (stereo not drawn) [glycopyrrolate], for which the “antiperspirant efficacy in words” value in series [1] (0.3% concentration) is “essentially ineffective”. Besides, the “inhibition enjoyed by two subjects” value in series [1] (0.3% concentration, two subjects) is given as 0.50 % inhibition. Besides, the “statistical significance of reduction in sweat production” value is reported as “no statistically significant reduction in sweat production” in series [1] (0.3% w/v simple solution (Group A) vs distilled water), “significant sweat reduction” in series [1] (setting [3]) and “significant sweat reduction” in series [1] (setting [4]). The “binomial criteria of 95% confidence with at least 50% of the population showing at least 20% reduction in sweating” value in series [1] (1% group) and in series [1] (3% group) was “met the binomial criteria” throughout. Further, the “range of effect (inhibition of sweating across subjects)” value in series [1] (1% treatment group) was −16-to 54 % inhibition; in series [1] (3% treatment group), −13 to 90 % inhibition. The “mean reduction in sweat production” value is 32.85%±9.81 in series [1] (setting [3]) and 54.72%±20.23 in series [1] (setting [4]). For the same compound, in series [1] (simple solution, 0.3%, 1% and 3%, highest efficacy at 3%), the “dose dependence of antiperspirant effect” value was “dose-dependent antiperspirant effect”. In addition, the “pupillary dilation or other systemic symptoms of anticholinergic agents” value in series [2] (setting [5]) is listed as “no signs of pupillary dilation or other systemic symptoms”. For the same compound, the serious adverse events entry in series [2] (setting [5]) is given as “No serious adverse events”. Besides, the “adverse events, clinical significance” value in series [2] (reviewed by principal investigator and attendant cardiologist) is reported as “clinically non-significant”.
